Ends that are not written are not given here.
Legend:
[1] = biological target: T1, mImpα2 (Mus musculus, UniProt P52293); assay: Microscale thermophoresis (MST); type: binding; settings: for Kd: RED-NHS-labelled mImpα2 60 nM, NLS 250 μM–7.6 nM, 20 mM Tris–HCl, 127 mM NaCl, pH 8.0, 0.5% Tween-20, mean ± SD of three experiments, read-out: KD, 1-binding site fitted model; for Hill Coeff.: Hill equation fit, mean ± SD of three experiments
T1 construct: MImpα2, residues 70–529, was co‐crystallized with each NLS analog; His-tag; made in house; host or cells: Escherichia coli BL21 (DE3)
Description: Microscale thermophoresis (MST) experiments were conducted using the Monolith NT.115 (Nanotemper, Germany). The RED‐NHS 2nd generation Nanotemper labeling kit (MO‐L011) was used to label mImpα2 in 20 mM Tris–HCl and 127 mM NaCl at pH 8.0. Ten microliter of RED‐NHS‐reacted mImpα2 at 60 nM was titrated against a serial 1:1 dilution (250 μM–7.6 nM) of 10 μL of NLS containing 0.5% Tween‐20, and the mixture was pipetted into 16 MST capillaries contained in a single cartridge. The samples were processed using default settings and followed the manufacturer's protocol. The binding model fits are detailed in Data S1.
A two-binding site and Hill fitting model were also performed by using the following equation in GraphPad. The experiments were repeated three times and the calculated affinity values were reported as the mean equilibrium KD ± standard deviation.
One binding site equation [11]:
Y= Et+Lt+KD- (Et+Lt+KD)2- 4EtLt2Et
Where Lt is the total ligand concentration; protein concentration is Et; KD is the dissociation constant or binding affinity.
Two binding site equation [11]: […]
Where KD1and KD2are the dissociation constants for binding site 1 and 2.
Where L is known, and cooperativity is explicitly reported as the Hill coefficient (n) […].

[2] = biological target: T1, mImpα2; assay: Apparent NLS–mImpα2 complex stability monitored by CD (thermal denaturation); type: binding; settings: for T°: CD thermal denaturation of mImpα2 in the presence of the ligand (mImpα2 alone 36.35); for ∆H°u (T°): CD thermal denaturation of mImpα2 with ligand, Van't Hoff method; for ΔG°u (25°C) / ΔG°u (37°C) / ΔΔG°u (25°C) / ΔΔG°u (37°C): CD; for ΔG°u (25°C) / ΔG°u (37°C): mImpα2 with ligand; for ΔΔG°u (25°C) / ΔΔG°u (37°C): relative to mImpα2 alone
Description: In the presence of TAF8 NLS, mImpα2 was stabilized, evidenced by the increase in temperature denaturation, shift in stability curves, and the reduction of the unfolded state (Figures S5a–c and 5a). The analogs also stabilized mImpα2, albeit to a lesser extent than TAF8 NLS.
CD measurements were conducted as previously described, including the determination of free energy using the Van't Hoff method (Jean‐Francois et al. [2003]). Fitting details are in Data S1.

[3] = test system: Hela cells; assay: Fluorescence microscopy of nuclear localization of EGFP-NLS constructs, Hela; type: cell-based; settings: Hela cells transfected with pCIneoEGFP constructs (EGFP fusions), 24 h post-transfection
Description: The plasmids, cloning, and cell culture transfection methods are described in Data S1. Cells were fixed with 3% paraformaldehyde (Electron Microscopy Sciences, Cat#15710) for 15 min at room temperature; then rinsed thoroughly with PBS. Nuclear staining was performed using 1 μg/mL DAPI (Sigma, Cat#D9542) in PBS. Following staining, cells were rinsed again with PBS and mounted with glass coverslips using Vectashield Antifade Mounting Medium (Vector Laboratories, Cat#H‐1000).
Fluorescence imaging was performed using a Zeiss AxioImager.M2 microscope (RRID:SCR_024706) equipped with a 40× EC Plan‐NeoFluar (1.3 NA; oil) objective, X‐Cite XYLIS LED illumination system, and a Zeiss AxioCam mRm CCD monochrome camera. Image acquisition and initial processing were performed using ZEN Blue software (RRID:SCR_013672), and additional analyses were performed using Fiji (ImageJ; RRID:SCR_002285). For each experimental condition, 15 randomly selected fields of view were imaged. Line overlay fluorescence intensity was quantified using the line profile tool in Fiji. A straight line across the entire cell length was drawn and centered on the nucleus. The “Plot Profile” function was used to extract pixel intensity values along the line. Three cells were analyzed per condition, and the data were presented as mean fluorescence intensity values. […]

[4] = Solubility of the synthesized peptides in water; settings: synthesized peptide
[5] = biological target: importin‐α; settings: 1:1 stoichiometry; ref Trowitzsch et al. [2015]; read-out: Dissociation constant (KD) by ITC; cited from earlier work
Description: The general transcription factor TFIID is essential for RNA polymerase II transcription initiation in eukaryotic cells. This megadalton protein complex, composed of several TATA‐binding‐associated factors (TAFs), is assembled into a functional transcription factor in the nucleus (Thomas and Chiang [2006]). […] The Berger group recently elucidated how an essential TFIID subcomplex consisting of TAF2, TAF8, and TAF10 is assembled in the cytoplasm (Trowitzsch et al. [2015]). […] Trowitzsch et al. originally reported K D value for TAF8 NLS of ~10 μM with 1:1 stoichiometry (Trowitzsch et al. [2015]). […] In c ...

With EVKKPKIDE [A1] the Kd [1] was 13.8 ± 2.31 µM.
In the case of H-PEKKPKIDE-OH [A3], the “T°” value [2] is reported as 40.55 °C, the “∆H°u (T°)” value [2] is reported as 94.9 kcal/mol and the “ΔG°u (25°C)” value [2] is reported as 4.3 kcal/mol. The “ΔG°u (37°C)” value [2] was 1.1 kcal/mol, the “ΔΔG°u (25°C)” value [2] was 1.8 kcal/mol and the “ΔΔG°u (37°C)” value [2] was 1.3 kcal/mol. The “Hill Coeff.” value [1] was 0.71 ± 0.30 and the Kd [1] was 10.6 ± 2.14 µM.
In the case of PVKKEKIDE [A4], the “Nuclear localization (fluorescence)” value [3] is reported as “outperformed A3 in promoting nuclear localization”, the “T°” value [2] is reported as 37.15 °C and the “∆H°u (T°)” value [2] is reported as 87.9 kcal/mol. The “ΔG°u (25°C)” value [2] was 3.2 kcal/mol, the “ΔG°u (37°C)” value [2] was 0.1 kcal/mol and the “ΔΔG°u (25°C)” value [2] was 0.7 kcal/mol. The “ΔΔG°u (37°C)” value [2] was 0.3 kcal/mol, the “Hill Coeff.” value [1] was 0.64 ± 0.24 and the Kd [1] was 16.7 ± 1.96 µM.
With PVKKEKIEE [A2] the “Soluble in H20” value [4] was “Yes” and the Kd [1] was 15.9 ± 3.1 µM.
With PVKKPKIRR [TAF8] the “T°” value [2] was 47.45 °C, the “∆H°u (T°)” value [2] was 170 kcal/mol and the “ΔG°u (25°C)” value [2] was 11.1 kcal/mol. For the same substance, the “ΔG°u (37°C)” value [2] was 5.4 kcal/mol, the “ΔΔG°u (25°C)” value [2] was 8.6 kcal/mol and the “ΔΔG°u (37°C)” value [2] was 5.6 kcal/mol. The “Soluble in H20” value [4] was “Yes”, the Kd [5] was roughly 10 µM and the “Hill Coeff.” value [1] was 3.1 ± 0.39. For the same substance, the Kd [1] was 1.21 ± 0.313 µM.

Reference: publication PMC12375970, “Probing the extent of importin‐α targeting of the TAF8 NLS by eliminating its cationic net‐charge” (Protein Science : A Publication of the Protein Society, 2025)
